The results in this text go back to patent US20210309619A1, “ISOXAZOLIN-5-ONE DERIVATIVES AND HERBICIDES CONTAINING THE SAME AS ACTIVE INGREDIENTS” (HOKKO CHEMICAL INDUSTRY CO., LTD., priority 2018, published 2021).

What all share (type): in vivo
Test [1] relates to Echinochloa crus-galli. The test is described as follows: Herbicidal effect test by treatment of dry field farming soil (Test Example 3). Particulars: 120 g/10 a, sprayed one day after seeding, 14 days after treatment. The text has this: (§1) Herbicidal Rate (%)={1−(Average Dry Weight (g) of Plant of Treated Area)/(Average Dry Weight (g) of Plant of Untreated Area)}×100 [Math. 1] Pots with a size of 36 cm^2 were filled with a dry field farming soil (alluvium). The soil of the top layer of 1 cm and seeds of weeds, namely southern crabgrass, Echinochloa crus-galli, Chenopodium album and Amaranthus viridis, 20 seeds each, were evenly mixed, and the top layer was gently pressed. Emulsions prepared using the compounds in Table 5 below according to Formulation Example 5 were diluted with water one day after seeding, and the water-diluted agent solutions were sprayed to the soil surfaces at a ratio of 100 liters per 10 ares. A converted amount of the applied active ingredient corresponded to 120 g per 10 ares. The herbicidal effects were evaluated by the same standard as that in Test Example 1, 14 days after the treatment with the agents. In this regard, the compound numbers in Table 5 are the same as those in Table 1 and Table 2 above.

For test [2], the system named is Amaranthus viridis. The description is as above. The following applies: 120 g/10 a, sprayed one day after seeding, 14 days after treatment.
Excerpt: as §1

The subject of test [3] is Chenopodium album. Described as above. Particulars: 120 g/10 a, sprayed one day after seeding, 14 days after treatment.
Excerpt: as §1

Test [4] deals with southern crabgrass. Described as above. The following applies: 120 g/10 a, sprayed one day after seeding, 14 days after treatment.
Excerpt: as §1

For test [5], the system named is Echinochloa crus-galli. The test is described as follows: Herbicidal effect test by treatment of stem and leaf in dry field farming (Test Example 4). The following applies: 120 g/10 a, stem and leaf treatment seven days after seeding, 14 days after treatment.
Excerpt: as §1, with “Table 6” for “Table 5”, “water seven days” for “water one day”

The subject of test [6] is Amaranthus viridis. Described as above. Particulars: 120 g/10 a, stem and leaf treatment seven days after seeding, 14 days after treatment.
Excerpt: as §1, with “Table 6” for “Table 5”, “water seven days” for “water one day”

The test system of test [7] is Chenopodium album. The description is as above. The following applies: 120 g/10 a, stem and leaf treatment seven days after seeding, 14 days after treatment.
Excerpt: as §1, with “Table 6” for “Table 5”, “water seven days” for “water one day”

Test [8] has as its system southern crabgrass. The description is as above. Particulars: 120 g/10 a, stem and leaf treatment seven days after seeding, 14 days after treatment.
Excerpt: as §1, with “Table 6” for “Table 5”, “water seven days” for “water one day”

Test [9] deals with Echinochloa crus-galli. The test is described as follows: Herbicidal effect test by treatment during growing period in paddy rice cultivation (Test Example 2). Particulars: 120 g/10 a, treated seven days after seeding, 14 days after treatment. The text has this: (§2) Herbicidal Rate (%)={1−(Average Dry Weight (g) of Plant of Treated Area)/(Average Dry Weight (g) of Plant of Untreated Area)}×100 [Math. 1]
(§3) Wagner pots with an area of 1/10000 ares were filled with a paddy soil, and a compound fertilizer (N:P:K=17:17:17) was mixed after addition of water, followed by soil puddling. Then, Echinochloa crus-galli, broad leaf weeds (Lindernia pyxidaria and Monochoria vaginalis) and Scirpus juncoides, 30 seeds each, were sown in a depth of 0 to 1 cm. Water was poured immediately after seeding, and the water depth was kept at about 3 cm. A subsequent management was conducted in a glass greenhouse. Emulsions prepared using the compounds in Table 4 below according to Formulation Example 5 were diluted with water seven days after seeding, and a certain amount of the water-diluted agent solutions were dropped. A converted amount of the applied active ingredient corresponded to 120 g per 10 ares. The test was conducted in a double system per one agent solution concentration area, and the herbicidal rates (%) were determined by the equation (Math. 1) 14 days after the treatment with the agents. In this regard, the compound numbers in Table 4 are the same as those in Table 1 and Table 2 above.

The subject of test [10] is Monochoria vaginalis. The test is described as above. The following applies: 120 g/10 a, treated seven days after seeding, 14 days after treatment.
Excerpt: as §2, §3

Test [11] relates to Scirpus juncoides. Described as above. The following applies: 120 g/10 a, treated seven days after seeding, 14 days after treatment.
Excerpt: as §2, §3

The subject of test [12] is Lindernia pyxidaria. The description is as above. Particulars: 120 g/10 a, treated seven days after seeding, 14 days after treatment.
Excerpt: as §2, §3

The subject of test [13] is Echinochloa crus-galli. The test is described as follows: Herbicidal effect test by treatment of rice paddy soil (Test Example 1). The following applies: 120 g/10 a, treated immediately after seeding, 14 days after treatment. The method, then: (§4) Wagner pots with an area of 1/10000 ares were filled with a paddy soil, and a compound fertilizer (N:P:K=17:17:17) was mixed after water was added, followed by soil puddling. Then, Echinochloa crus-galli, broad leaf weeds (Lindernia pyxidaria and Monochoria vaginalis) and Scirpus juncoides, 30 seeds each, were sown in a depth of 0 to 1 cm. Water was poured immediately after seeding, and the water depth was kept at about 3 cm. A subsequent management was conducted in a glass greenhouse. Immediately after that, emulsions prepared using the compounds in Table 3 below according to Formulation Example 5 were diluted with water, and a certain amount of the water-diluted agent solutions were dropped. A converted amount of the applied active ingredient corresponded to 120 g per 10 ares.
(§5) This test was conducted in a double system per one agent solution concentration area, and the herbicidal rates (%) were determined by the following equation (Math. 1) 14 days after the treatment with the agents.
as §2

Test [14] deals with Monochoria vaginalis. Described as above. Particulars: 120 g/10 a, treated immediately after seeding, 14 days after treatment. How it is done:
as §4, §5, §2

Test [15] relates to Scirpus juncoides. Described as above. The following applies: 120 g/10 a, treated immediately after seeding, 14 days after treatment. The method, then: as §4, §5, §2
The test system of test [16] is Lindernia pyxidaria. Described as above. Particulars: 120 g/10 a, treated immediately after seeding, 14 days after treatment. The method, then:
as §4, §5, §2

On to `COC1CCCCC1n1oc(=O)c(Cc2ccccc2N(C(=O)Oc2ccccc2)S(=O)(=O)C(F)(F)F)c1C` (single isomer, unassigned) [Compound 288], for which the “Herbicidal rate, Echinochloa crus-galli” value is reported as 90% in test [1], 90% in [5], 100% in test [9] and 100% in test [13]. The “Herbicidal rate, Amaranthus viridis” value came to 40% in [2] and 90% in test [6]. Besides, the “Herbicidal rate, Chenopodium album” value is 60% in test [3] and 90% in test [7]. For the same compound, the “Herbicidal rate, southern crabgrass” value in [4] and in test [8] was 90% in each case. In addition, the entries for the “Herbicidal rate, Monochoria vaginalis” value in [10] and in [14] were 90% and 100%, respectively. Also, the “Herbicidal rate, Scirpus juncoides” value came out at 90% in [11] and 100% in test [15]. Also, the “Herbicidal rate, Lindernia pyxidaria” value in test [12] was found to be 90%; in test [16] it was 100%.
For `COC1CCCCC1n1oc(=O)c(Cc2ccccc2N(C(=O)Oc2ccccc2)S(=O)(=O)C(F)(F)F)c1C` (single isomer, unassigned) [Compound 289], the “Herbicidal rate, Echinochloa crus-galli” value in test [1] is on record as 90%; in [13] it was 100%. Also, the “Herbicidal rate, Amaranthus viridis” value in test [2] is reported as 40%; in test [6], 90%. The “Herbicidal rate, Chenopodium album” value amounted to 60% in test [3] and 90% in test [7]. In test [4], the “Herbicidal rate, southern crabgrass” value is recorded as 90%. For the same compound, the “Herbicidal rate, Monochoria vaginalis” value in [10] is 90%; in test [14] it was 100%. Further, the “Herbicidal rate, Scirpus juncoides” value in test [11] is 90%; in test [15] it was 100%. Moreover, the “Herbicidal rate, Lindernia pyxidaria” value in test [12] worked out at 90%; in test [16], 100%.
In the case of `COC1CCCC1n1oc(=O)c(Cc2ccccc2NS(=O)(=O)C(F)(F)F)c1C` (stereo not drawn) [Compound 59, 1,1,1-trifluoro-N-[2-[[(2-methoxycyclopentyl)-3-methyl-5-oxoisoxazol-4-yl]methyl]phenyl]methanesulfonamide], the “Herbicidal rate, Echinochloa crus-galli” value stood at 90% in test [1], 90% in test [5], 100% in [9] and 100% in test [13]. Also, the “Herbicidal rate, Amaranthus viridis” value came to 60% in [2] and 90% in test [6]. In addition, the “Herbicidal rate, Chenopodium album” value in test [3] is 60%; in test [7], 90%. In addition, the “Herbicidal rate, southern crabgrass” value in test [4] and in test [8] was 90% throughout. The “Herbicidal rate, Monochoria vaginalis” value in [10] amounted to 90%; in test [14], 100%. The “Herbicidal rate, Scirpus juncoides” value turned out to be 90% in [11] and 100% in test [15]. Besides, the figures for the “Herbicidal rate, Lindernia pyxidaria” value in test [12] and in test [16] were 80% and 100%, respectively.
Consider `COC1CCCCC1n1oc(=O)c(Cc2ccccc2NS(=O)(=O)C(F)(F)F)c1C` (stereo not drawn) [Compound 62, 1,1,1-trifluoro-N-[2-[[(2-methoxycyclohexyl)-3-methyl-5-oxoisoxazol-4-yl]methyl]phenyl]methanesulfonamide], for which the “Herbicidal rate, Echinochloa crus-galli” value is on record as 90% in [1], 90% in test [5], 100% in test [9] and 100% in [13]. The “Herbicidal rate, Amaranthus viridis” value amounted to 60% in [2] and 90% in [6]. The “Herbicidal rate, Chenopodium album” value is 60% in test [3] and 90% in test [7]. Moreover, the “Herbicidal rate, southern crabgrass” value in test [4] and in [8] was 90% each time. Also, the “Herbicidal rate, Monochoria vaginalis” value was determined as 90% in [10] and 100% in test [14]. Besides, the “Herbicidal rate, Scirpus juncoides” value is reported as 90% in test [11] and 100% in test [15]. The “Herbicidal rate, Lindernia pyxidaria” value worked out at 80% in [12] and 100% in [16].
With `COC1CCCC1n1oc(=O)c(Cc2ccccc2N(C(C)=O)S(=O)(=O)C(F)(F)F)c1C` (stereo not drawn) [Compound 107, N-[2-[[(2-methoxycyclopentyl)-3-methyl-5-oxoisoxazol-4-yl]methyl]phenyl]-N-(trifluoromethylsulfonyl)acetamide], the “Herbicidal rate, Echinochloa crus-galli” value was 90% in [1], 90% in test [5], 100% in test [9] and 100% in [13]. The entries for the “Herbicidal rate, Amaranthus viridis” value in test [2] and in test [6] were 60% and 90%, respectively. The “Herbicidal rate, Chenopodium album” value in test [3] was 60%; in [7] it was 90%. In addition, the “Herbicidal rate, southern crabgrass” value came to 90% in test [4] and 80% in test [8]. In addition, the results for the “Herbicidal rate, Monochoria vaginalis” value in [10] and in [14] were 90% and 100%, respectively. Also, the “Herbicidal rate, Scirpus juncoides” value in test [11] was 90%; in test [15] it was 100%. Besides, the “Herbicidal rate, Lindernia pyxidaria” value in test [12] was found to be 80%; in [16], 100%.
On to `COC1CCCC1n1oc(=O)c(Cc2ccccc2N(C(=O)C(C)C)S(=O)(=O)C(F)(F)F)c1C` (stereo not drawn) [Compound 113], for which the “Herbicidal rate, Echinochloa crus-galli” value in test [1] was found to be 90%; in test [5] it was 90%; in test [9], 100%; in test [13] it was 100%. For the same compound, the “Herbicidal rate, Amaranthus viridis” value is 60% in [2] and 90% in test [6]. In addition, the “Herbicidal rate, Chenopodium album” value in [3] amounted to 60%; in test [7], 90%. The “Herbicidal rate, southern crabgrass” value in test [4] came out at 90%; in test [8], 80%. The figures for the “Herbicidal rate, Monochoria vaginalis” value in test [10] and in [14] were 90% and 100%, respectively. Besides, the results for the “Herbicidal rate, Scirpus juncoides” value in test [11] and in [15] were 90% and 100%, respectively. Also, the “Herbicidal rate, Lindernia pyxidaria” value came to 80% in [12] and 100% in test [16].
